Test results reported in publication PMC2893943 (Nanoscale Research Letters, 2010).

Columns and labels:
[1] = particle size distribution before and after wet milling; format: physicochemical; settings: for particle size D50 of the bulk material: before micronization; for particle size D50 after micronization: nanosuspension, wet milling
adrenal [2] = assay: six-day repeat dose side effect study: adrenal involution; format: in vivo, Sprague–Dawley rats; settings: at the ED50 dose (30 μg fluticasone, 100 μg ciclesonide), IT once daily, 6 days
thymus [3] = settings: 7-day study, cited from earlier work
[4] = test system: antigen-induced airway inflammation (eosinophils in BALF); settings: cited from earlier work; for ED50, antigen-induced influx of eosinophils in airway BALF and lung tissue: IT-administered; for ED50 for the inhibition of eosinophil infiltration into BALF: as quoted with the 7-day side effect study
[5] = test system: plasma corticosterone (HPA axis suppression); settings: fluticasone 0.1 mg/kg; ciclesonide 0.01 to 0.1 mg/kg/day; 28-day; cited from earlier work
[6] = test system: LPS-induced inflammation model in rats; format: in vivo, Sprague–Dawley rats; settings: for ED50 based on neutrophil infiltration and cytokine production data: IT instillation of nanosuspension; for ED50 based on neutrophil infiltration and cytokine production data / EDmax / dose of maximum effect (EDmax): rat LPS model; for ED50 in the LPS assay: IT nanosuspension prior to LPS challenge, inhibition of neutrophil infiltration or TNFα production in BALF; for EDmax / dose of maximum effect (EDmax): IT nanosuspension
[7] = cited from earlier work
[8] = background statement, no reference given; cited from earlier work
[9] = test system: plasma corticosterone (HPA axis suppression); assay: six-day repeat dose side effect study: plasma corticosterone level; format: in vivo, Sprague–Dawley rats; settings: ED50 doses, 30 μg fluticasone, 2 h following the last dose
thymus [10] = assay: six-day repeat dose side effect study: thymus involution; format: in vivo, Sprague–Dawley rats; settings: at the ED50 dose, IT once daily, 6 days
adrenal [11] = settings: 7-day study, cited from earlier work
bone growth = settings: 7-day study; cited from earlier work
[12] = six-day repeat dose side effect study: plasma drug exposure by LC/MS/MS; format: in vivo, Sprague–Dawley rats; settings: 2 h post the last dose
[13] = IT administration, on the basis of dose

particle size D50 of the bulk material [1] [μm]	particle size D50 after micronization [1] [μm]	SMILES	average adrenal involution (adrenal [2]) [%]	ED50, antigen-induced influx of eosinophils in airway BALF and lung tissue [4] [mg/kg]	ED50 for the inhibition of eosinophil infiltration into BALF [4] [mg/kg]	effect on plasma corticosterone levels [5]	ED50 based on neutrophil infiltration and cytokine production data [6] [mg]	ED50 in the LPS assay [6] [µg]	EDmax [6] [mg]	dose of maximum effect (EDmax) [6] [µg]	plasma protein binding [7] [%]	average thymus involution (thymus [10]) [%]	also measured
35	0.24	CCC(=O)O[C@]1(C(=O)SCF)[C@H](C)C[C@H]2[C@@H]3C[C@H](F)C4=CC(=O)C=C[C@]4(C)[C@@]3(F)[C@@H](O)C[C@@]21C [fluticasone, fluticasone propionate]	16.6 ± 5.1	0.068	0.095	significantly suppressed	0.03	30	0.1	100	90	59.5 ± 5.8	fold more potent at inducing thymus involution compared to ciclesonide (thymus [3]; [13]): sixfold; bioavailability [8]: < 1%; clearance [8]: ~ liver blood flow; fold lower level of plasma corticosterone than 100 μg ciclesonide [9]: approximately 10; fold more potent at inducing adrenal involution compared to ciclesonide (adrenal [11]; [13]): approximately 44
56	0.22	CC(C)C(=O)OCC(=O)[C@@]12O[C@H](C3CCCCC3)O[C@@H]1C[C@H]1[C@@H]3CCC4=CC(=O)C=C[C@]4(C)[C@H]3[C@@H](O)C[C@@]12C [ciclesonide]	7.6 ± 5.3	0.49	0.75	did not change corticosterone levels	0.1	100	0.3	300	> 99	41.0 ± 4.3	fold less potent than fluticasone at inducing thymus involution (thymus [3]): sixfold; fold less potent than fluticasone in terms of ED50 ([4]; antigen-induced airway eosinophilia and Sephadex-induced lung edema): 7–9; ED50, inhibition of accumulation of eosinophils in BALF ([4]; separate study, same preclinical model): 0.5 mg/kg; fold less potent than fluticasone at decreasing bone growth (bone growth): 22; fold less potent than fluticasone (ratio of ED50) ([6]; 100 μg/30 μg): threefold; fold less potent than fluticasone at inducing adrenal involution (adrenal [11]): 44
–	–	C[C@]12C=CC(=O)C=C1CC[C@@H]1[C@@H]2[C@@H](O)C[C@@]2(C)[C@H]1C[C@H]1O[C@@H](C3CCCCC3)O[C@]12C(=O)CO [des-CIC, desisobutyryl-ciclesonide]	–	–	–	–	–	–	–	–	> 99	–	ratio of systemic exposure, des-CIC versus fluticasone at ED50 doses [12]: greater than sixfold
